Test results published in PMC7782499, “Progerinin, an optimized progerin-lamin A binding inhibitor, ameliorates premature senescence phenotypes of Hutchinson-Gilford progeria syndrome” (Communications Biology, 2021).
Several values for one entry are separate records, joined by “and”; a condition that tells them apart may be missing. Identical values can stand only once.

Assays:
H3K9me3 = H3K9me3 expression in HGPS cells; type: cell-based, human; conditions: for H3K9me3 positive cells after treatment with chemicals, Ave / H3K9me3 positive cells after treatment with chemicals / H3K9me3 intensity: AG03198; for H3K9me3 positive cells after treatment with chemicals, Ave: average; for H3K9me3 positive cells after treatment with chemicals: single replicates
Procedure: Fig. 1 SLC-D011 ameliorates premature aging features of HGPS. A. HEK293 cells were transiently transfected with expression vector encoding wild-type lamin A (WT-LA), lamin A-C661A (LA-C661A), progerin, or progerin-C611A. LA-C661A or progerin-C611A with point mutation in CaaX motif was predicted to be lack of farnesylation, […] that of authentic WT-LA or progerin. GFP-conjugated empty expression vector was used as a negative control. Cells were visualized at 24 h after transfection. B Transient transfection of HEK293 cells with expression vector encoding progerin or […] leads to reduced expression of H3K9me3 (n = 3 independent experiments; two-tailed Student’s t test). C. JH4 derivatives (JH010 and SLC-D011(D011)) inhibit lamin A and progerin interaction. For binding inhibition assay, bead-conjugated lamin A (GST-LA) was incubated with HEK293 cells, transiently transfected with GFP-progerin (PG), and treated with indicated chemicals. Actin was used as a loading control. PPT, co-precipitated materials with recombinant proteins; Sup supernatant. 5 μM of each chemical was used for binding assay. […] H3K9me3 reduction is a well-known marker for premature aged cells. Thus, H3K9me3 expression was evaluated by immunostaining. […] E SLC-D011 obviously suppresses progerin expression. For progerin expression analysis, each chemical was used to treat HGPS cells (AG03198, Coriell Cell Repositories) for 7 days. […] F SLC-D011 reduces the expression of progerin in other HGPS cells (AG11513 and AG11498, Coriell Cell Repositories). Treatment with SLC-D011 (2 μM) for 7 days reduced the expression of progerin and p16/INK4A but induced the expression of H3K9me3. […] G JH4, JH010, and SLC-D011 promote cell proliferation. Cell viability was determined by MTT assay after incubation with chemicals for 7 days (n = 3 independent experiments; two-tailed Student’s t test). H JH4, JH010, and SLC-D011 show similar activity for ameliorating nuclear deformation. After incubation with chemicals for 7 days, cells were stained with progerin and H3K9me3 antibodies (n = 3 independent experiment; two-tailed Student’s t test), **p < 0.001. Data are reported as mean ± SD. “Con” means Dimethyl sulfoxide (DMSO)-treated control. The data are normalized to DMSO-treated cells.
Cells were cultured on coverslips, washed with PBS, fixed with 4% paraformaldehyde (PFA) for 30 min at RT, and then permeabilized with 0.2% Triton X-100 at RT for 5 min. After treatment with blocking solution (anti-Human antibody diluted 1:400 in PBS) for 1 h, cells were incubated with anti-lamin A/C (1:400), anti-progerin (1:100), Ki67 (1:200), and anti-H3K9me3 (1:200) in blocking buffer overnight at 4 °C. Finally, cells were incubated with fluorescein isothiocyanate and rhodamine-conjugated secondary antibodies at 4 °C for 7 h. Nuclei were stained with DAPI (4, 6-diamidino-2-phenylindole) at RT for 10 min. After cells were washed three times with PBS, coverslips were mounted with mounting solution (H-5501; Vector Laboratories, Burlingame, CA, USA). Immunofluorescence signal was detected with a fluorescence microscopy (Zeiss and Logos).
For nuclear deformation cell counting, immunofluorescence staining was performed with lamin A or progerin antibodies. After staining, abnormal nuclear membrane was counted in randomly selected fields and expressed as percentages or actual numbers of total cells counted. Abnormalities of nuclear membrane were determined based on the following: (1) lamin A/C or progerin lining was extruded or engulfed, (2) having at least one bleb, and (3) irregular contour. Counting of cells with nuclear deformation was performed by three independent observers who were blinded to chemical treatment group. To analyze histone H3K9me3 intensity or expression, images were quantified using “color histogram” function of Image J software (National Institute of Health, NIH). Fluorescence intensities were subtracted by background signals.

HGPS cells = experiment: Cell proliferation of HGPS cells (MTT assay, cell counting); type: cell-based, human; conditions: for Cell proliferation (rate): 7 days, normalized to DMSO-treated cells; for Cell counting after treatment with chemicals, Ave / Cell proliferation after treatment with SLC-D011, Ave: average; for Cell counting after treatment with chemicals / Cell proliferation after treatment with SLC-D011: single replicates
Procedure: (§1) To determine the cellular viability, cells were treated with lonafarnib or SLC-D011 for 2 weeks. For MTT assay, cells were incubated with 0.5 mg/ml of 3-(4,5-dimethythiazol-2-yl)-2,5-diphenyl tetrazolium bromide (MTT) solution for 6 hr at 37 °C. After removing MTT solution, the precipitated materials were dissolved in […] DMSO and quantified by measuring the absorbance at 540 nm.
Fig. S4. Ef fect s of J H4, J H010, and SLC-D011 in ameliorating nuclear deformation of HGPS fibroblasts.
A. JH4, JH010, and SLC-D011 increase population of HGPS cells (n = 3 independent experiment; two-
tailed Student’s t -test), **p<0.001. […]
DAPI indicated DNA. C. Treatment with SLC-D011 (1 µM) for 7 days increased
cell proliferation in three different HGPS cells but not in normal fibroblasts (n = 3 independent experiments;
two-tailed Student’s t-test), **p < 0.001, N.S: not significant. AU, arbitrary units. […]

[1] = test system: normal fibroblasts and HGPS cells; experiment: Long-term treatment cell viability (MTT assay) in normal fibroblasts and HGPS cells; type: cell-based
Procedure: as §1
Fig. S12. […] A. SLC-D011, compar ed to lonafarnib, reduces exogenous progerin expression in HEK293 cells. B. Long- t e r m treatment (treated with 2μM ever y ot her day for 2 weeks) with lonafarnib or SLC-D011 was performed for normal fibroblasts and HGPS cells. […]
to determine the cellular viability after treatment with lonafarnib or SLC-D011 (n = 3 independent experiment; two-tailed Student’s t -test), **p < 0.001, *p < 0.05, N.S: not significant. […]

Row | SMILES | H3K9me3 positive cells after treatment with chemicals, Ave (H3K9me3; 2μM) | H3K9me3 positive cells after treatment with chemicals (H3K9me3; 2μM) | H3K9me3 positive cells after treatment with chemicals, Ave (H3K9me3; 5μM) | H3K9me3 positive cells after treatment with chemicals (H3K9me3; 5μM) | H3K9me3 positive cells after treatment with chemicals, Ave (H3K9me3; 10μM) | H3K9me3 positive cells after treatment with chemicals (H3K9me3; 10μM) | Cell proliferation (rate) (HGPS cells; AG03198, 2uM) | Cell proliferation (rate) (HGPS cells; AG03198, 2uM, mean) | Cell proliferation (rate) (HGPS cells; AG03198, 5uM) | Cell proliferation (rate) (HGPS cells; AG03198, 5uM, mean) | Cell counting after treatment with chemicals, Ave (HGPS cells; AG11513) | Cell counting after treatment with chemicals (HGPS cells; AG11513) | Cell viability ([1]; AG03198, Ave) [ratio] | Cell viability ([1]; AG03198, individual replicate) | Cell viability ([1]; AG11513, Ave) [ratio] | Cell viability ([1]; AG11513, individual replicate) | Cell viability ([1]; N9, Ave) [ratio] | Cell viability ([1]; N9, individual replicate) | further results
1 | CC1(C)Oc2cc3oc(=O)ccc3cc2CC1OC(=O)C=Cc1cccnc1 (stereo not drawn) [JH4] | 14.5 | 13 and 17 and 15 (2×) and 11 and 16 | 21.6667 | 27 and 16 and 20 and 22 (2×) and 23 | 27 | 30 and 29 and 24 and 25 and 27 (2×) | 1.267 and 1.276 and 1.118 and 1.25 and 1.333 and 1.2963 | 1.257 | 1.833 and 1.759 and 1.647 and 1.964 and 1.667 and 1.926 | 1.799 | 28 | 22 and 29 and 19 and 40 and 32 and 37 and 17 and 28 |  |  |  |  |  |  | 
2 | CC1(C)Oc2cc3oc(=O)ccc3cc2C[C@@H]1OC/C=C/c1ccccc1 [SLC-D011] | 19.5 | 15 and 23 and 20 and 19 and 22 and 18 | 25.1667 | 20 and 24 and 27 and 28 and 29 and 23 | 29 | 24 and 33 and 32 and 30 and 29 and 26 | 1.467 and 1.31 and 1.235 and 1.393 and 1.367 and 1.407 | 1.363 | 2.067 and 2.103 and 1.735 and 2.25 and 2.2 and 2.259 | 2.102 | 29.75 | 20 (2×) and 29 and 32 and 37 and 42 and 33 and 25 | 1.64 | 1.6383 ratio and 1.687 ratio and 1.593 ratio | 1.362 | 1.362 ratio and 1.373 ratio and 1.352 ratio | 2.552 | 2.559 ratio and 2.546 ratio and 2.551 ratio | H3K9me3 intensity (H3K9me3): 0.227 AU and 0.219 AU and 0.255 AU and 0.254 AU; H3K9me3 intensity (H3K9me3; mean): 0.2387 AU; Effect on H3K9me3 expression (H3K9me3; HGPS cells): induce H3K9me3 expression; Cell counting (HGPS cells; AG03198, 0.1μM, Ave): 13.375; Cell counting (HGPS cells; AG03198, 0.1μM, individual replicate): 15 and 16 and 14 and 8 and 13 and 12; Cell counting (HGPS cells; AG03198, 0.2μM, Ave): 12.25; Cell counting (HGPS cells; AG03198, 0.2μM, individual replicate): 11 and 14 and 12 and 13 and 16 and 10; Cell counting (HGPS cells; AG03198, 0.5μM, Ave): 13.625; Cell counting (HGPS cells; AG03198, 0.5μM, individual replicate): 15 and 13 and 17 and 11 and 10 and 12 and 18; Cell counting (HGPS cells; AG03198, 1μM, Ave): 18; Cell counting (HGPS cells; AG03198, 1μM, individual replicate): 17 and 21 and 26 and 16 and 13; Cell proliferation after treatment with SLC-D011, Ave (HGPS cells; AG03198): 2.85 AU; Cell proliferation after treatment with SLC-D011 (HGPS cells; AG03198): 2.5 AU (2×) and 2.2 AU and 2.7 AU and 3.3 AU and 3.7 AU and 3 AU and 2.9 AU; Cell proliferation after treatment with SLC-D011, Ave (HGPS cells; AG11498): 3.325 AU; Cell proliferation after treatment with SLC-D011 (HGPS cells; AG11498): 3.3 AU (2×) and 3.6 AU and 2.9 AU and 3.5 AU and 3.4 AU and 3.9 AU and 2.7 AU; Cell proliferation after treatment with SLC-D011, Ave (HGPS cells; AG11513): 2.875 AU; Cell proliferation after treatment with SLC-D011 (HGPS cells; AG11513): 2 AU (2×) and 2.9 AU and 3.2 AU and 3.3 AU (2×) and 3.8 AU and 2.5 AU; Cell proliferation after treatment with SLC-D011, Ave (HGPS cells; N9): 3.975 AU; Cell proliferation after treatment with SLC-D011 (HGPS cells; N9): 3.9 AU and 4.2 AU (2×) and 3.8 AU (2×) and 4 AU and 4.4 AU and 3.5 AU; Concentration promoting cell proliferation and ameliorating nuclear abnormality (HGPS cells; direct cell counting assay, HGPS cells): 100 nM
3 | NC(=O)N1CCC(CC(=O)N2CCC([C@H]3c4ncc(Br)cc4CCc4cc(Cl)cc(Br)c43)CC2)CC1 [lonafarnib, reference compound] |  |  |  |  |  |  |  |  |  |  |  |  | 0.5027 | 0.6483 ratio and 0.3112 ratio and 0.5484 ratio | 0.692 | 0.6982 ratio and 0.6988 ratio and 0.6791 ratio | 1.642 | 1.689 ratio and 1.546 ratio and 1.691 ratio | Cell death on long-term treatment ([1]; 2μM every other day for 2 weeks): induced cell death in both normal fibroblasts and HGPS cells
